11 compounds from ChEMBL document CHEMBL1143216, “Synthesis of 1,2,3-triazole-linked pyrrolobenzodiazepine conjugates employing 'click' chemistry: DNA-binding affinity and anticancer activity” (2008) can be followed below.

Test [1] concerns COLO 205. Kind of test: Growth inhibition of human Colo205 cells by SRB method. Format: functional.
Test [2] in a line: Growth inhibition of human DWD cells by SRB method. In kind it is functional.
The subject of test [3] is DNA. The test is described as follows: Binding affinity to calf thymus DNA assessed as helix melting temperature at 20 uM after 18 hrs. In kind it is nucleic-acid assay. To be noted: Bos taurus.
Test [4] in a line: Growth inhibition of human Gurav cells by SRB method. In kind it is functional.
Test [5] has as its system MCF7. Kind of test: Growth inhibition of human MCF7 cells by SRB method. Format: functional.
The subject of test [6] is KB. Kind of test: Growth inhibition of human KB cells by SRB method. Format: functional. On the technique in general: In SRB staining, fixed cells bind dye roughly in proportion to their protein.
The test system of test [7] is ZR-75-1. The test is described as follows: Growth inhibition of human Zr-75-1 cells by SRB method. In kind it is functional.
For test [8], the system named is A2780. Kind of test: Growth inhibition of human A2780 cells by SRB method. In kind it is functional.
In test [9] the test system is A549. Kind of test: Growth inhibition of human A549 cells by SRB method. In kind it is functional.
Test [10] has as its system PC-3. Kind of test: Growth inhibition of human PC3 cells by SRB method. Format: functional.
Test [11] deals with SiHa. The test is described as follows: Growth inhibition of human SiHa cells by SRB method. Format: functional.

For the compound `COc1cc2c(cc1O)N=C[C@@H]1CCCN1C2=O`, the 50% growth inhibitory concentration (GI50) is 0.11 µM in test [1]; 1.49 µM in test [2]; 0.16 µM in test [4]; 0.17 µM in test [5]; 0.17 µM in [6]; 2.37 µM in test [7]. The GI50 in [8] stood at 0.14 µM; in [9], 0.16 µM; in test [10] it was 0.2 µM; in [11] it was 0.17 µM. For the same compound, the thermal shift (ΔTm) in test [3] was found to be 0.7 °C.

With `COC(=O)c1nnn(CCCCCOc2cc3c(cc2OC)C(=O)N2C[C@@H](n4nnc(C(=O)OC)c4C(=O)OC)C[C@H]2C=N3)c1C(=O)OC`, the 50% growth inhibitory concentration (GI50) was 1.92 µM in [1]; 0.15 µM in [2]; 1.82 µM in test [4]; 2.05 µM in test [5]; 1.92 µM in test [6]; 5.51 µM in test [7]. Moreover, the GI50 is 0.16 µM in test [8], 2.41 µM in [9], 0.17 µM in test [10] and 0.12 µM in [11]. Moreover, the shift in melting temperature (ΔTm) in [3] worked out at 5.9 °C.

With `COC(=O)c1nnn(CCCCOc2cc3c(cc2OC)C(=O)N2C[C@@H](n4nnc(C(=O)OC)c4C(=O)OC)C[C@H]2C=N3)c1C(=O)OC`, in test [3], the shift in melting temperature (ΔTm) was 0 °C.

In the case of `COC(=O)c1nnn([C@H]2C[C@H]3C=Nc4cc(OCc5ccccc5)c(OC)cc4C(=O)N3C2)c1C(=O)OC`, the GI50 in test [1] was found to be 27.9 µM; in [2] it was 29.7 µM; in test [5], 27.6 µM; in test [8] it was 25.8 µM; in test [11], 2.04 µM. Besides, in test [3], the thermal shift (ΔTm) worked out at 2.2 °C.

Take `COc1cccc2c1C(=O)c1c(O)c3c(c(O)c1C2=O)C[C@@](O)(C(=O)CO)C[C@@H]3O[C@H]1C[C@H](N)[C@H](O)[C@H](C)O1` [DOXORUBICIN]: the GI50 in test [1] stood at 0.15 µM; in [2], 0.1 µM; in [4], 0.17 µM; in [5] it was 0.18 µM; in test [6], 0.17 µM; in test [7], 1.79 µM. The concentration for 50% growth inhibition (GI50) came out at 0.17 µM in test [8], 7.25 µM in test [9], 1.81 µM in [10] and 0.18 µM in test [11].

On to `COC(=O)c1nnn(CCCCOc2cc3c(cc2OC)C(=O)N2CCC[C@H]2C=N3)c1C(=O)OC`, for which the concentration for 50% growth inhibition (GI50) came to 0.21 µM in test [1]; 2.24 µM in test [2]; 2.39 µM in [4]; 30.5 µM in [5]; 2.36 µM in [6]; 2.12 µM in [7]. The GI50 in test [8] was 0.13 µM; in test [9], 28.7 µM; in test [10], 25.4 µM; in test [11] it was 2.04 µM. Besides, the shift in melting temperature (ΔTm) in test [3] worked out at 0 °C.

On to `COC(=O)c1nnn([C@H]2C[C@H]3C=Nc4cc(OC)c(OC)cc4C(=O)N3C2)c1C(=O)OC`, for which the 50% growth inhibitory concentration (GI50) in test [1] amounted to 1.09 µM; in test [2] it was 2.26 µM; in test [4], 2.39 µM; in test [5], 2.17 µM; in [6], 26.4 µM; in [7], 2.47 µM. In addition, the GI50 in [8] came to 0.914 µM; in test [10], 2.23 µM; in test [11], 0.21 µM. Moreover, the ΔTm in test [3] amounted to 2.8 °C.

As for `COC(=O)c1nnn(CCCOc2cc3c(cc2OC)C(=O)N2C[C@@H](n4nnc(C(=O)OC)c4C(=O)OC)C[C@H]2C=N3)c1C(=O)OC`, the GI50 is 2.01 µM in test [1]; 2.42 µM in test [4]; 2.12 µM in [5]; 1.05 µM in test [6]; 0.19 µM in [8]; 7.12 µM in test [9]. In [11], the GI50 was found to be 2.17 µM. Besides, in test [3], the ΔTm was 4.5 °C.

In the case of `COC(=O)c1nnn([C@H]2C[C@H]3C=Nc4ccccc4C(=O)N3C2)c1C(=O)OC`, the thermal shift (ΔTm) in test [3] turned out to be 2.3 °C.

As for `COC(=O)c1nnn(CCCOc2cc3c(cc2OC)C(=O)N2CCC[C@H]2C=N3)c1C(=O)OC`, the 50% growth inhibitory concentration (GI50) in [1] was found to be 2.09 µM; in test [2] it was 25.5 µM; in [4], 25.1 µM; in test [6], 26.6 µM; in test [7], 2.53 µM; in test [8], 2.48 µM. In addition, the concentration for 50% growth inhibition (GI50) in [9] was found to be 24.7 µM; in test [10], 28.7 µM; in test [11] it was 2.12 µM. The shift in melting temperature (ΔTm) in test [3] was 3.1 °C.

On to `COC(=O)c1nnn(CCCCCOc2cc3c(cc2OC)C(=O)N2CCC[C@H]2C=N3)c1C(=O)OC`, for which the GI50 in test [1] came to 2.17 µM; in [2] it was 26 µM; in test [4], 26.8 µM; in test [6], 7.19 µM; in test [7] it was 1.93 µM; in test [8], 26 µM. The GI50 was found to be 6.12 µM in [9], 29.1 µM in test [10] and 2.15 µM in [11]. For the same compound, the thermal shift (ΔTm) in test [3] was found to be 3.6 °C.

As a reminder, the GI50 is the concentration at which growth is held to half of that of the control. The low end stands for more potent growth inhibition, the high end for less potent growth inhibition. For orientation: ΔTm means the shift of the melting midpoint relative to a reference.
